Experimental data: US20100016547A1, “Glycosilated Peptide and Medicine Comprising It as an Effective Ingredient” (priority 2005, published 2010)
pEC50, pIC50: −log10 of the molar value. Peptide text beside a SMILES is read from it. * marks the point of attachment. X2 = CC(=O)N[C@@H]1[C@@H](O)[C@H](O[C@@H]2O[C@H](CO[C@]3(C(=O)O)C[C@H](O)[C@@H](NC(C)=O)[C@H]([C@H](O)[C@H](O)CO)O3)[C@H](O)[C@H](O)[C@H]2O)[C@@H](CO)O[C@H]1N*; X1 = CC(=O)N[C@@H]1[C@@H](O)[C@H](O[C@@H]2O[C@H](CO)[C@H](O)[C@H](O)[C@H]2O)[C@@H](CO)O[C@H]1N*

Assays:
[1] = target: T1, GLP-1 receptor (Homo sapiens, UniProt P43220)
T1 sequence (P43220 24-463, species assumed): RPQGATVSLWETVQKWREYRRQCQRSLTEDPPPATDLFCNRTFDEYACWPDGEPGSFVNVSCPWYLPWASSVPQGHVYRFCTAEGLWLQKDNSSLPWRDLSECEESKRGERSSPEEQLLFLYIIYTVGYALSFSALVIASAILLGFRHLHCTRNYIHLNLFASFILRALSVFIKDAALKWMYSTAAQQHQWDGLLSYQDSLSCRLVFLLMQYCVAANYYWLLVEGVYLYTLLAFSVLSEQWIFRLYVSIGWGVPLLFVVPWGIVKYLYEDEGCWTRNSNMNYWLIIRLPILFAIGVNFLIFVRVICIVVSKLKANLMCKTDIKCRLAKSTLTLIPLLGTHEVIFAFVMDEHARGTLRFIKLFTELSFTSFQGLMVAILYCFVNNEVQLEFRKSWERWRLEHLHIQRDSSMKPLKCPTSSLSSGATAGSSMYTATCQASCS
Protocol: After being incubated at room temperature for 2 hours, the solution was filtered through a unifilter 96GF/C plate (Perkin-Elmer) pretreated with 1% polyethylenimine containing 0.5% BSA, washed with 25 mM HEPES buffer solution (pH 7.4) containing 0.5% BSA, and radioactivity remained on the filter was measured by a gamma counter (Top Counter; Perkin-Elmer).

[2] = target: T1, GLP-1 receptor; assay: Assay for production of cAMP
Protocol: Assay for Production of cAMP
After stirring at room temperature for an hour, the cells were lysed with Triton X-100 (final concentration: 1%).
Quantity of cAMP was determined using cAMP Femtomolar Kit (CIS Bio International). The reaction solution (1 μL) was moved to a new 384-well plate and diluted by adding 9 μL of dilution buffer. Next, each 5 μL of cAMP-XL665 solution and anti-cAMP cryptate solution of the Kit was added, the mixture was incubated at room temperature for an hour, and time-resolved fluorescence was measured using RUBYstar (BMG LABTECH).

Row | Structure (SMILES) | pIC50 [1] | pEC50 [2]
1 | CC[C@H](C)[C@H](NC(=O)[C@H](Cc1ccccc1)NC(=O)[C@H](CCC(=O)O)NC(=O)[C@H](CCCCN)NC(=O)[C@H](C)NC(=O)[C@H](C)NC(=O)[C@H](CCC(N)=O)NC(=O)CNC(=O)[C@H](CCC(=O)O)NC(=O)[C@H](CC(C)C)NC(=O)[C@H](Cc1ccc(O)cc1)NC(=O)[C@H](CO)NC(=O)[C@H](CO)NC(=O)[C@@H](NC(=O)[C@H](CC(=O)O)NC(=O)[C@H](CO)NC(=O)[C@@H](NC(=O)[C@H](Cc1ccccc1)NC(=O)[C@@H](NC(=O)CNC(=O)[C@H](CCC(=O)O)NC(=O)[C@H](C)NC(=O)[C@@H](N)Cc1c[nH]cn1)[C@@H](C)O)[C@@H](C)O)C(C)C)C(=O)N[C@@H](C)C(=O)N[C@@H](Cc1c[nH]c2ccccc12)C(=O)N[C@@H](CC(C)C)C(=O)N[C@H](C(=O)N[C@@H](CSCC(=O)N[C@@H](CC(=O)N[C@@H]1O[C@H](CO)[C@@H](O[C@@H]2O[C@H](CO)[C@@H](O[C@@H]3O[C@H](CO[C@H]4O[C@H](CO)[C@@H](O)[C@H](O)[C@@H]4O[C@@H]4O[C@H](CO)[C@@H](O[C@@H]5O[C@H](CO[C@]6(C(=O)O)C[C@H](O)[C@@H](NC(C)=O)[C@H]([C@H](O)[C@H](O)CO)O6)[C@H](O)[C@H](O)[C@H]5O)[C@H](O)[C@H]4NC(C)=O)[C@@H](O)[C@H](O[C@H]4O[C@H](CO)[C@@H](O)[C@H](O)[C@@H]4O[C@@H]4O[C@H](CO)[C@@H](O[C@@H]5O[C@H](CO[C@]6(C(=O)O)C[C@H](O)[C@@H](NC(C)=O)[C@H]([C@H](O)[C@H](O)CO)O6)[C@H](O)[C@H](O)[C@H]5O)[C@H](O)[C@H]4NC(C)=O)[C@@H]3O)[C@H](O)[C@H]2NC(C)=O)[C@H](O)[C@H]1NC(C)=O)C(=O)O)C(=O)NCC(=O)N[C@@H](CCCNC(=N)N)C(=O)N[C@@H](CSCC(=O)N[C@@H](CC(=O)N[C@@H]1O[C@H](CO)[C@@H](O[C@@H]2O[C@H](CO)[C@@H](O[C@@H]3O[C@H](CO[C@H]4O[C@H](CO)[C@@H](O)[C@H](O)[C@@H]4O[C@@H]4O[C@H](CO)[C@@H](O[C@@H]5O[C@H](CO[C@]6(C(=O)O)C[C@H](O)[C@@H](NC(C)=O)[C@H]([C@H](O)[C@H](O)CO)O6)[C@H](O)[C@H](O)[C@H]5O)[C@H](O)[C@H]4NC(C)=O)[C@@H](O)[C@H](O[C@H]4O[C@H](CO)[C@@H](O)[C@H](O)[C@@H]4O[C@@H]4O[C@H](CO)[C@@H](O[C@@H]5O[C@H](CO[C@]6(C(=O)O)C[C@H](O)[C@@H](NC(C)=O)[C@H]([C@H](O)[C@H](O)CO)O6)[C@H](O)[C@H](O)[C@H]5O)[C@H](O)[C@H]4NC(C)=O)[C@@H]3O)[C@H](O)[C@H]2NC(C)=O)[C@H](O)[C@H]1NC(C)=O)C(=O)O)C(N)=O)C(C)C [GL3437CE1] | 7.52 | 8.39
2 | CC[C@H](C)[C@H](NC(=O)[C@H](Cc1ccccc1)NC(=O)[C@H](CCC(=O)O)NC(=O)[C@H](CC(=O)N[C@@H]1O[C@H](CO)[C@@H](O[C@@H]2O[C@H](CO)[C@H](O)[C@H](O)[C@H]2O)[C@H](O)[C@H]1NC(C)=O)NC(=O)[C@H](C)NC(=O)[C@H](C)NC(=O)[C@H](CCC(N)=O)NC(=O)CNC(=O)[C@H](CCC(=O)O)NC(=O)[C@H](CC(C)C)NC(=O)[C@H](Cc1ccc(O)cc1)NC(=O)[C@H](CO)NC(=O)[C@H](CO)NC(=O)[C@@H](NC(=O)[C@H](CC(=O)O)NC(=O)[C@H](CO)NC(=O)[C@@H](NC(=O)[C@H](Cc1ccccc1)NC(=O)[C@@H](NC(=O)CNC(=O)[C@H](CCC(=O)O)NC(=O)[C@H](C)NC(=O)[C@@H](N)Cc1c[nH]cn1)[C@@H](C)O)[C@@H](C)O)C(C)C)C(=O)N[C@@H](C)C(=O)N[C@@H](Cc1c[nH]c2ccccc12)C(=O)N[C@@H](CC(C)C)C(=O)N[C@H](C(=O)N[C@@H](CCCCN)C(=O)NCC(=O)N[C@@H](CCCNC(=N)N)C(N)=O)C(C)C [GL26NL] | 8.70 | 9.48
3 | CC[C@H](C)[C@H](NC(=O)[C@H](Cc1ccccc1)NC(=O)[C@H](CCC(=O)O)NC(=O)[C@H](CCCCN)NC(=O)[C@H](C)NC(=O)[C@H](C)NC(=O)[C@H](CCC(N)=O)NC(=O)CNC(=O)[C@H](CCC(=O)O)NC(=O)[C@H](CC(C)C)NC(=O)[C@H](CC(=O)N[C@@H]1O[C@H](CO)[C@@H](O[C@@H]2O[C@H](CO)[C@H](O)[C@H](O)[C@H]2O)[C@H](O)[C@H]1NC(C)=O)NC(=O)[C@H](CO)NC(=O)[C@H](CO)NC(=O)[C@@H](NC(=O)[C@H](CC(=O)O)NC(=O)[C@H](CO)NC(=O)[C@@H](NC(=O)[C@H](Cc1ccccc1)NC(=O)[C@@H](NC(=O)CNC(=O)[C@H](CCC(=O)O)NC(=O)[C@H](C)NC(=O)[C@@H](N)Cc1c[nH]cn1)[C@@H](C)O)[C@@H](C)O)C(C)C)C(=O)N[C@@H](C)C(=O)N[C@@H](Cc1c[nH]c2ccccc12)C(=O)N[C@@H](CC(C)C)C(=O)N[C@H](C(=O)N[C@@H](CCCCN)C(=O)NCC(=O)N[C@@H](CCCNC(=N)N)C(N)=O)C(C)C [GL19NL] (H-HAEGTFTSDVSSD(X1)LEGQAAKEFIAWLVKGR-NH2; N-terminus assumed) | 7.42 | 8.08
4 | CC[C@H](C)[C@H](NC(=O)[C@H](Cc1ccccc1)NC(=O)[C@H](CCC(=O)O)NC(=O)[C@H](CCCCN)NC(=O)[C@H](C)NC(=O)[C@H](C)NC(=O)[C@H](CCC(N)=O)NC(=O)CNC(=O)[C@H](CCC(=O)O)NC(=O)[C@H](CC(C)C)NC(=O)[C@H](Cc1ccc(O)cc1)NC(=O)[C@H](CO)NC(=O)[C@H](CO)NC(=O)[C@@H](NC(=O)[C@H](CC(=O)O)NC(=O)[C@H](CO)NC(=O)[C@@H](NC(=O)[C@H](Cc1ccccc1)NC(=O)[C@@H](NC(=O)CNC(=O)[C@H](CCC(=O)O)NC(=O)[C@H](C)NC(=O)[C@@H](N)Cc1c[nH]cn1)[C@@H](C)O)[C@@H](C)O)C(C)C)C(=O)N[C@@H](C)C(=O)N[C@@H](Cc1c[nH]c2ccccc12)C(=O)N[C@@H](CC(C)C)C(=O)N[C@H](C(=O)N[C@@H](CC(=O)N[C@@H]1O[C@H](CO)[C@@H](O)[C@H](O)[C@H]1NC(C)=O)C(=O)NCC(=O)N[C@@H](CCCNC(=N)N)C(N)=O)C(C)C [GL34NG] | 9.07 | 9.77
5 | CC[C@H](C)[C@H](NC(=O)[C@H](Cc1ccccc1)NC(=O)[C@H](CCC(=O)O)NC(=O)[C@H](CCCCN)NC(=O)[C@H](C)NC(=O)[C@H](C)NC(=O)[C@H](CCC(N)=O)NC(=O)CNC(=O)[C@H](CCC(=O)O)NC(=O)[C@H](CC(C)C)NC(=O)[C@H](Cc1ccc(O)cc1)NC(=O)[C@H](CO)NC(=O)[C@H](CO)NC(=O)[C@@H](NC(=O)[C@H](CC(=O)O)NC(=O)[C@H](CO)NC(=O)[C@@H](NC(=O)[C@H](Cc1ccccc1)NC(=O)[C@@H](NC(=O)CNC(=O)[C@H](CCC(=O)O)NC(=O)[C@H](CC(=O)N[C@@H]1O[C@H](CO)[C@@H](O[C@@H]2O[C@H](CO)[C@H](O)[C@H](O)[C@H]2O)[C@H](O)[C@H]1NC(C)=O)NC(=O)[C@@H](N)Cc1c[nH]cn1)[C@@H](C)O)[C@@H](C)O)C(C)C)C(=O)N[C@@H](C)C(=O)N[C@@H](Cc1c[nH]c2ccccc12)C(=O)N[C@@H](CC(C)C)C(=O)N[C@H](C(=O)N[C@@H](CCCCN)C(=O)NCC(=O)N[C@@H](CCCNC(=N)N)C(N)=O)C(C)C [GL08NL] | < 7.00 | 6.55

Now from value to compound:

Row | pIC50 [1] | pEC50 [2] | Structure (SMILES)
6 | 8.52 | 9.70 | CC[C@H](C)[C@H](NC(=O)[C@H](Cc1ccccc1)NC(=O)[C@H](CCC(=O)O)NC(=O)[C@H](CCCCN)NC(=O)[C@H](C)NC(=O)[C@H](C)NC(=O)[C@H](CCC(N)=O)NC(=O)CNC(=O)[C@H](CCC(=O)O)NC(=O)[C@H](CC(C)C)NC(=O)[C@H](Cc1ccc(O)cc1)NC(=O)[C@H](CO)NC(=O)[C@H](CO)NC(=O)[C@@H](NC(=O)[C@H](CC(=O)O)NC(=O)[C@H](CO)NC(=O)[C@@H](NC(=O)[C@H](Cc1ccccc1)NC(=O)[C@@H](NC(=O)CNC(=O)[C@H](CCC(=O)O)NC(=O)[C@H](C)NC(=O)[C@@H](N)Cc1c[nH]cn1)[C@@H](C)O)[C@@H](C)O)C(C)C)C(=O)N[C@@H](C)C(=O)N[C@@H](Cc1c[nH]c2ccccc12)C(=O)N[C@@H](CC(C)C)C(=O)N[C@H](C(=O)N[C@@H](CC(=O)N[C@@H]1O[C@H](CO)[C@@H](O[C@@H]2O[C@H](CO[C@]3(C(=O)O)C[C@H](O)[C@@H](NC(C)=O)[C@H]([C@H](O)[C@H](O)CO)O3)[C@H](O)[C@H](O)[C@H]2O)[C@H](O)[C@H]1NC(C)=O)C(=O)NCC(=O)N[C@@H](CCCNC(=N)N)C(=O)N[C@@H](CC(=O)N[C@@H]1O[C@H](CO)[C@@H](O[C@@H]2O[C@H](CO[C@]3(C(=O)O)C[C@H](O)[C@@H](NC(C)=O)[C@H]([C@H](O)[C@H](O)CO)O3)[C@H](O)[C@H](O)[C@H]2O)[C@H](O)[C@H]1NC(C)=O)C(N)=O)C(C)C [GL3437NS6]
7 | < 7.00 | 7.30 | CC[C@H](C)[C@H](NC(=O)[C@H](Cc1ccccc1)NC(=O)[C@H](CCC(=O)O)NC(=O)[C@H](CCCCN)NC(=O)[C@H](C)NC(=O)[C@H](C)NC(=O)[C@H](CCC(N)=O)NC(=O)CNC(=O)[C@H](CCC(=O)O)NC(=O)[C@H](CC(C)C)NC(=O)[C@H](CC(=O)N[C@@H]1O[C@H](CO)[C@@H](O[C@@H]2O[C@H](CO[C@]3(C(=O)O)C[C@H](O)[C@@H](NC(C)=O)[C@H]([C@H](O)[C@H](O)CO)O3)[C@H](O)[C@H](O)[C@H]2O)[C@H](O)[C@H]1NC(C)=O)NC(=O)[C@H](CO)NC(=O)[C@H](CO)NC(=O)[C@@H](NC(=O)[C@H](CC(=O)O)NC(=O)[C@H](CO)NC(=O)[C@@H](NC(=O)[C@H](Cc1ccccc1)NC(=O)[C@@H](NC(=O)CNC(=O)[C@H](CCC(=O)O)NC(=O)[C@H](C)NC(=O)[C@@H](N)Cc1c[nH]cn1)[C@@H](C)O)[C@@H](C)O)C(C)C)C(=O)N[C@@H](C)C(=O)N[C@@H](Cc1c[nH]c2ccccc12)C(=O)N[C@@H](CC(C)C)C(=O)N[C@H](C(=O)N[C@@H](CCCCN)C(=O)NCC(=O)N[C@@H](CCCNC(=N)N)C(N)=O)C(C)C [GL19NS6] (H-HAEGTFTSDVSSD(X2)LEGQAAKEFIAWLVKGR-NH2)
